Data on four molecules can be found in ChEMBL document CHEMBL1201862, “PubChem BioAssay data set” (2004).

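Method: 48-hour compound exposure of cells in 96-well plates, five concentrations, linear interpolation of endpoints. At the GI50, growth is halved.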 Active and inactive are the calls of the source. Rule as the data show it: active = GI50 up to about 1.1 µM and inactive = higher.

Test systems include RXF 393; CAKI-1; SW-620; EKVX; HCC 2998; ACHN; PC-3; Hs-578T; A549; M14; OVCAR-8; SK-MEL-5; T47D; NCI-H460; SNB-19; HCT-116; HT-29; UACC-257; MOLT-4.
What all share (test): NCI-60 cell line screen, 48 h

In the case of `O=C(O)Cc1cc(Cl)ccc1O`, the GI50 in the experiment with RXF 393, in the experiment with CAKI-1, in the experiment with SW-620, in the experiment on EKVX, with HCC 2998 and in the experiment on ACHN was > 100 µM (inactive) throughout. For the same molecule, the GI50 in the experiment on PC-3, with Hs-578T, with A549, with M14, in the experiment on OVCAR-8 and in the experiment on SK-MEL-5 was > 100 µM (inactive) each time. The GI50 in the experiment with T47D, in the experiment with NCI-H460, with SNB-19, with HCT-116, in the experiment with HT-29 and in the experiment on UACC-257 was > 100 µM (inactive) throughout.

Turning to `COC1C(=O)CCC2(CO2)C1(O)C1(C)OC1CCC(C)C` (stereo unspecified), the GI50 with RXF 393 is > 100 µM (inactive); in the experiment on CAKI-1, > 100 µM (inactive); in the experiment with SW-620 it was 19.8 µM (inactive); in the experiment with MOLT-4, 40.1 µM (inactive); with EKVX, > 100 µM (inactive); in the experiment with HCC 2998 it was 47.2 µM (inactive). The GI50 with ACHN was 28.2 µM (inactive); with PC-3 it was 25.9 µM (inactive); in the experiment on Hs-578T it was 84.3 µM (inactive); with M14 it was 20.1 µM (inactive); in the experiment on OVCAR-8, 28 µM (inactive); in the experiment with SK-MEL-5 it was 21.5 µM (inactive). For the same molecule, the GI50 in the experiment on T47D was 52.8 µM (inactive); in the experiment with NCI-H460 it was < 0.01 µM (active); in the experiment with SNB-19, 34.2 µM (inactive); with HCT-116 it was 21.5 µM (inactive); with HT-29, 22.2 µM (inactive); in the experiment on UACC-257, > 100 µM (inactive).

For the molecule `CN(C)C(=S)N1C(=S)N(c2ccccc2)C(=N/c2ccccc2)/C1=N\c1ccccc1`, the GI50 with RXF 393, with CAKI-1, in the experiment with SW-620, in the experiment on MOLT-4, with EKVX and in the experiment with HCC 2998 was > 100 µM (inactive) in each case. Besides, the GI50 in the experiment on ACHN, with PC-3, in the experiment on Hs-578T, in the experiment with A549, in the experiment on OVCAR-8 and with SK-MEL-5 was > 100 µM (inactive) each time. For the same molecule, the GI50 in the experiment with T47D, in the experiment on NCI-H460, in the experiment with SNB-19, in the experiment on HCT-116, in the experiment on HT-29 and in the experiment on UACC-257 was > 100 µM (inactive) in each case.

Take `O=C1O[C@H](COC(=O)c2ccccc2)[C@@H](OC(=O)c2ccccc2)C=C1OC(=O)c1ccccc1`: the GI50 with RXF 393 is 17 µM (inactive); in the experiment with CAKI-1, 23.8 µM (inactive); with SW-620, 19 µM (inactive); with MOLT-4, 23.1 µM (inactive); in the experiment with EKVX, 17.7 µM (inactive); with HCC 2998 it was > 100 µM (inactive). The GI50 in the experiment on ACHN is 16 µM (inactive); in the experiment on PC-3, 25.4 µM (inactive); in the experiment with Hs-578T, 33 µM (inactive); in the experiment on M14, 17.5 µM (inactive); with OVCAR-8, 21.8 µM (inactive); with SK-MEL-5, 19 µM (inactive). Besides, the GI50 in the experiment with T47D was 23.4 µM (inactive); in the experiment with NCI-H460 it was 16.2 µM (inactive); in the experiment on SNB-19, 18.1 µM (inactive); in the experiment on HCT-116, 17.3 µM (inactive); in the experiment with UACC-257, 25.7 µM (inactive).
